Entries after “also recorded” stand apart in the source; their conditions may differ.
Legend:
Type in all cases: in vivo
[1] = Flavor evaluation, tasted in water; details: for flavor evaluation: cooling: 40 ppm in water
[2] = Flavor evaluation, tasted in water; details: 40 ppm in water
Source text: Flavor Evaluation of Structure I
Flavor evaluation of the (2S,5R)—N-[4-(4-Amino-4-oxobutyl)phenyl]-5-methyl-2-(propan-2-yl)cyclohexanecarboxamide in water at concentration 40 ppm: […]

[3] = tested on: descriptive analysis panel; test: Chewing gum cooling evaluation by descriptive analysis panel; details: gum blended with Structure I
Method: The following gum base formulation was prepared: [table] Structure I by itself and in separate mixtures with monomenthyl glutarate, 2-isopropyl-N,2,3-trimethylbutyramid, N-ethyl-p-menthanecarboxamide and menthyl acetoacetate at levels detailed in the Tables below was blended with the gum base in a Sigma mixer. The resultant chewing gum blend was then manufactured into strips 1 inch in width and 0.1 inches in thickness. These strips were cut into lengths of 3 inches each. […] Samples were profiled by a highly trained descriptive analysis panel. The ballot consisted of the following terms: Total impact, total mint, cooling-mouth closed, cooling-breath in, nasal cooling—breath in, throat irritation, bitterness, tongue irritation, numbing. Each attribute was rated at discrete time points including 5 secs, 30 secs, 90 secs, 3 mins, 5 mins, 7 mins, 10 mins, 15 mins, 20 mins, and 30 mins. The following table details the panelist's results for the combination of Structure I with monomenthyl glutarate, 2-isopropyl-N,2,3-trimethylbutyramid, N-ethyl-p-menthanecarboxamide and menthyl acetoacetate at 3 minutes, 8 minutes, 20 minutes and 30 minute, 40 minute and 50 minute intervals. The amounts are listed in weight percent.

Q: What does the source list for `CC(C)[C@@H]1CC[C@@H](C)CC1C(=O)Nc1ccc(CCCC(N)=O)cc1` (stereo partly drawn) [(2S,5R)—N-[4-(4-Amino-4-oxobutyl)phenyl]-5-methyl-2-(propan-2-yl)cyclohexanecarboxamide]?
A: flavor evaluation: cooling ([1]; 30 minutes): localized on tip; flavor evaluation: cooling ([1]; ~3.5 minutes): beginning to build; flavor evaluation: onset and character of cooling [2]: Late onset of cooling after expectorating, peppery on tip of tongue and back of throat, cooling on tip, irritating on back of throat—sore throat, cooling building on tip of tongue, peppery in esophagus; flavor evaluation: taste [2]: Umami! Ribotide-like. Umami upfront; flavor evaluation: cooling ([2]; after 20 minutes): Still going strong after 20 minutes and cooling on gums; flavor evaluation: cooling ([2]; ~40 sec): cooling just beginning, throat irritation, slight numbing on tip of tongue, mouth-watering, mouth coating—all over; flavor evaluation: cooling ([2]; ~7 minutes): continuing to build

Q: What does the source list for `CC(C)[C@@H]1CC[C@@H](C)CC1C(=O)Nc1ccc(CC(N)=O)cc1` (stereo partly drawn) [Structure I, (2S,5R)—N-[4-(2-Amino-2-oxoethyl)phenyl]-5-methyl-2-(propan-2-yl)cyclohexanecarboxamide]?
A: duration of cooling ([1]; 1 ppm in water): 30 min; flavor properties (cooling) when tasted in water ([1]; 1 ppm in water): clean with slight cooling up front that builds with time to moderate level; flavor properties (cooling) when tasted in water ([1]; 10 ppm in water): moderate throat and mouth cooling that lingers with some bitter notes in background; duration of cooling ([1]; 10 ppm in water, with breath in): 30 min; panelist comment ([3]; Panelist 1, 11:05 (start 11:04)): Bitter, Brown, Sweet, slightly Vanilla; panelist comment ([3]; Panelist 1, 11:06 (start 11:04)): Start to notice cooling; panelist comment ([3]; Panelist 1, 11:08 (start 11:04)): Moderate cooling; panelist comment ([3]; Panelist 1, 11:11 (start 11:04)): Moderate cooling in mouth and now back of the throat; nice on breath in; also recorded: Continued long lasting cooling; panelist comment ([3]; Panelist 1, 11:15 (start 11:04)): Slight cooling moving to the front of the mouth; panelist comment ([3]; Panelist 1, 11:18 (start 11:04)): Stable cooling all over, nice level; panelist comment ([3]; Panelist 1, 11:22 (start 11:04)): Long lasting; panelist comment ([3]; Panelist 2, 11:04 (start)): Very sweet, brown; panelist comment ([3]; Panelist 2, 11:07 (start 11:04)): Started to notice cooling on breath and tip of the tongue; panelist comment ([3]; Panelist 2, 11:09 (start 11:04)): Started to notice on back of throat, continued to build in the rest of the mouth; panelist comment ([3]; Panelist 2, 11:11 (start 11:04)): Cooling consistent throughout mouth, slight irritation on the back of the throat; panelist comment ([3]; Panelist 2, 11:15 (start 11:04)): Cooling level the same; panelist comment ([3]; Panelist 2, 11:24 (start 11:04)): Still getting a good amount of cooling; panelist comment ([3]; Panelist 2, 12:07 (start 11:04)): Cooling is gone; panelist comment ([3]; Panelist 3, 11:07 (start 11:04)): Cooling on the back of the throat; panelist comment ([3]; Panelist 3, 11:14 (start 11:04)): Concentrated on the back of the throat; irritating; panelist comment ([3]; Panelist 3, 11:22 (start 11:04)): Full cooling after 20 min; panelist comment ([3]; Panelist 4, 11:07 (start 11:04)): Cooling perception begins (mild); panelist comment ([3]; Panelist 4, 11:09 (start 11:04)): Cooling pleasant, builds to moderate cooling on the front/tip of tongue; panelist comment ([3]; Panelist 4, 11:11 (start 11:04)): Intensity max reached; panelist comment ([3]; Panelist 4, 11:14 (start 11:04)): Cooling plateau, maintained. Delocalized all over mouth; panelist comment ([3]; Panelist 4, 11:19 (start 11:04)): Remains intense; panelist comment ([3]; Panelist 4, 11:20 (start 11:04)): Moves to throat (mild) very intense on tip of the tongue and center; panelist comment ([3]; Panelist 4, 11:24 (start 11:04)): Still cooling; panelist comment ([3]; Panelist 4, 12:00 (start 11:04)): Cooling remains; panelist comment ([3]; Panelist 4, 12:15 (start 11:04)): Cooling diminished significantly
